Experimental data: PubChem BioAssay (NCI)
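Method: 48-hour compound exposure of cells in 96-well plates, five concentrations, linear interpolation of endpoints. GI50 is the concentration that inhibits growth by half. The concentration for full growth arrest is given as TGI.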

Columns and labels:
Assay in all cases: NCI anticancer screen, dose series, 48 h
[1] = system: HT29 colon
[2] = system: LOX IMVI melanoma
[3] = system: BT-549 breast
[4] = system: HCC-2998 colon
[5] = system: SK-OV-3 ovarian
[6] = system: SR leukemia
[7] = system: K-562 leukemia
[8] = system: SF-268 CNS
[9] = system: SK-MEL-5 melanoma
[10] = system: PC-3 prostate
[11] = system: DU-145 prostate
[12] = system: RPMI-8226 leukemia
[13] = system: A549 NSCLC
[14] = system: CAKI-1 renal
[15] = system: ACHN renal
[16] = system: A498 renal
[17] = system: UACC-62 melanoma
[18] = system: HCT-15 colon
[19] = system: NCI/ADR-RES ovarian
[20] = system: TK-10 renal
[21] = system: OVCAR-5 ovarian
[22] = system: NCI-H460 lung
[23] = system: HS 578T breast
[24] = system: M14 melanoma
[25] = system: SK-MEL-2 melanoma
[26] = system: KM12 colon
[27] = system: SF-295 CNS
[28] = system: UO-31 renal
[29] = system: EKVX NSCLC
[30] = system: T-47D breast
[31] = system: MCF7 breast
[32] = system: 786-0 renal
[33] = system: MDA-MB-231 breast
[34] = system: MDA-MB-435
[35] = system: OVCAR-4 ovarian
[36] = system: OVCAR-3 ovarian
[37] = system: HOP-62 NSCLC
[38] = system: UACC-257 melanoma
[39] = system: NCI-H522 lung
[40] = system: SF-539 CNS
[41] = system: SW-620 colon
[42] = system: SK-MEL-28 melanoma
[43] = system: MALME-3M melanoma
[44] = system: HOP-92 NSCLC
[45] = system: SNB-19 CNS
[46] = system: MOLT-4 leukemia
[47] = system: OVCAR-8 ovarian
[48] = system: NCI-H226 lung
[49] = system: U251 CNS
[50] = system: COLO 205 colon
[51] = system: RXF 393 renal
[52] = system: NCI-H23 lung
[53] = system: SN12C renal
[54] = system: IGROV1 ovarian
[55] = system: HL-60(TB) leukemia
[56] = system: SNB-75 CNS
[57] = system: CCRF-CEM leukemia
[58] = system: HCT-116 colon

CN1CCN(Cc2ccc(NC(=O)c3ccc(C#Cc4c(N)ncc5ccc(F)cc45)cc3)cc2C(F)(F)F)CC1 was tested, and the GI50 [1] was 876 nM, the TGI [1] was 1860 nM and the GI50 [2] was 929 nM. The TGI [2] was 1690 nM, the GI50 [3] was 3190 nM and the TGI [3] was 9680 nM. It also gave a GI50 [4] of 870 nM, a TGI [4] of 1620 nM and a GI50 [5] of 2200 nM. It also gave a TGI [5] of 7630 nM, a GI50 [6] of 897 nM and a TGI [6] of 2320 nM. For the same compound, the GI50 [7] was 677 nM, the TGI [7] was 1870 nM and the GI50 [8] was 948 nM. For the same compound, the TGI [8] was 2140 nM, the GI50 [9] was 871 nM and the TGI [9] was 1580 nM. It also gave a GI50 [10] of 834 nM, a TGI [10] of 1610 nM and a GI50 [11] of 968 nM. For the same compound, the TGI [11] was 1770 nM, the GI50 [12] was 1080 nM and the TGI [12] was 2480 nM. It also gave a GI50 [13] of 1050 nM, a TGI [13] of 2190 nM and a GI50 [14] of 1970 nM. It also gave a TGI [14] of 7550 nM, a GI50 [15] of 970 nM and a TGI [15] of 1710 nM. For the same compound, the GI50 [16] was 1790 nM, the TGI [16] was 9710 nM and the GI50 [17] was 1000 nM. For the same compound, the TGI [17] was 1840 nM, the GI50 [18] was 892 nM and the TGI [18] was 1740 nM. It also gave a GI50 [19] of 1080 nM, a TGI [19] of 2320 nM and a GI50 [20] of 977 nM. The TGI [20] was 1790 nM, the GI50 [21] was 993 nM and the TGI [21] was 1850 nM. It also gave a GI50 [22] of 1060 nM, a TGI [22] of 2020 nM and a GI50 [23] of 1050 nM. It also gave a TGI [23] of 3650 nM, a GI50 [24] of 919 nM and a TGI [24] of 1710 nM. It also gave a GI50 [25] of 1080 nM, a TGI [25] of 2040 nM and a GI50 [26] of 733 nM. For the same compound, the TGI [26] was 1520 nM, the GI50 [27] was 1040 nM and the TGI [27] was 2040 nM. The GI50 [28] was 967 nM, the TGI [28] was 2260 nM and the GI50 [29] was 940 nM. For the same compound, the TGI [29] was 1850 nM, the GI50 [30] was 878 nM and the TGI [30] was 1850 nM. The GI50 [31] was 837 nM, the TGI [31] was 1590 nM and the GI50 [32] was 924 nM. For the same compound, the TGI [32] was 1730 nM, the GI50 [33] was 1140 nM and the TGI [33] was 2040 nM. The GI50 [34] was 874 nM, the TGI [34] was 1590 nM and the GI50 [35] was 1480 nM. It also gave a TGI [35] of 5830 nM, a GI50 [36] of 1400 nM and a TGI [36] of 3680 nM. The GI50 [37] was 883 nM, the TGI [37] was 1590 nM and the GI50 [38] was 1020 nM. The TGI [38] was 1910 nM, the GI50 [39] was 860 nM and the TGI [39] was 1590 nM. It also gave a TGI [40] of 1780 nM, a GI50 [41] of 972 nM and a TGI [41] of 1870 nM. It also gave a GI50 [42] of 1010 nM, a TGI [42] of 1740 nM and a GI50 [43] of 945 nM. The TGI [43] was 1800 nM, the GI50 [44] was 705 nM and the TGI [44] was 1450 nM. For the same compound, the GI50 [45] was 1090 nM, the TGI [45] was 1910 nM and the GI50 [46] was 799 nM. For the same compound, the TGI [46] was 1740 nM, the GI50 [47] was 955 nM and the TGI [47] was 1810 nM. For the same compound, the GI50 [48] was 1070 nM, the TGI [48] was 2600 nM and the GI50 [49] was 851 nM. It also gave a TGI [49] of 1590 nM, a GI50 [50] of 901 nM and a TGI [50] of 1640 nM. The GI50 [51] was 835 nM, the TGI [51] was 1600 nM and the GI50 [52] was 968 nM. The TGI [52] was 1890 nM, the GI50 [53] was 913 nM and the TGI [53] was 1780 nM. For the same compound, the GI50 [54] was 1130 nM, the TGI [54] was 2560 nM and the GI50 [55] was 935 nM. For the same compound, the TGI [55] was 2620 nM.

N#CCc1ncc(-c2ccc(C(F)(F)F)cc2)c(NC2CCCCCC2)n1 showed a GI50 [1] of over 10000 nM, a TGI [1] of over 10000 nM and a GI50 [2] of over 10000 nM. For the same compound, the TGI [2] was over 10000 nM, the GI50 [3] was over 10000 nM and the TGI [3] was over 10000 nM. The GI50 [4] was over 10000 nM, the TGI [4] was over 10000 nM and the GI50 [5] was over 10000 nM. It also gave a TGI [5] of over 10000 nM, a GI50 [6] of over 10000 nM and a TGI [6] of over 10000 nM. It also gave a GI50 [7] of over 10000 nM, a TGI [7] of over 10000 nM and a GI50 [8] of over 10000 nM. The TGI [8] was over 10000 nM, the GI50 [9] was over 10000 nM and the TGI [9] was over 10000 nM. The GI50 [10] was over 10000 nM, the TGI [10] was over 10000 nM and the GI50 [11] was over 10000 nM. For the same compound, the TGI [11] was over 10000 nM, the GI50 [12] was over 10000 nM and the TGI [12] was over 10000 nM. It also gave a GI50 [13] of over 10000 nM, a TGI [13] of over 10000 nM and a GI50 [56] of over 10000 nM. It also gave a TGI [56] of over 10000 nM, a GI50 [14] of over 10000 nM and a TGI [14] of over 10000 nM. It also gave a GI50 [15] of over 10000 nM, a TGI [15] of over 10000 nM and a GI50 [16] of over 10000 nM. For the same compound, the TGI [16] was over 10000 nM, the GI50 [17] was over 10000 nM and the TGI [17] was over 10000 nM. It also gave a GI50 [18] of over 10000 nM, a TGI [18] of over 10000 nM and a GI50 [19] of over 10000 nM. It also gave a TGI [19] of over 10000 nM, a GI50 [20] of over 10000 nM and a TGI [20] of over 10000 nM. For the same compound, the GI50 [21] was over 10000 nM, the TGI [21] was over 10000 nM and the GI50 [22] was over 10000 nM. The TGI [22] was over 10000 nM, the GI50 [23] was over 10000 nM and the TGI [23] was over 10000 nM. The GI50 [24] was over 10000 nM, the TGI [24] was over 10000 nM and the GI50 [25] was over 10000 nM. It also gave a TGI [25] of over 10000 nM, a GI50 [26] of over 10000 nM and a TGI [26] of over 10000 nM. The GI50 [27] was over 10000 nM, the TGI [27] was over 10000 nM and the GI50 [57] was over 10000 nM. It also gave a TGI [57] of over 10000 nM, a GI50 [28] of over 10000 nM and a TGI [28] of over 10000 nM. The GI50 [30] was over 10000 nM, the TGI [30] was over 10000 nM and the GI50 [31] was over 10000 nM. The TGI [31] was over 10000 nM, the GI50 [32] was over 10000 nM and the TGI [32] was over 10000 nM. For the same compound, the GI50 [58] was over 10000 nM, the TGI [58] was over 10000 nM and the GI50 [33] was over 10000 nM. For the same compound, the TGI [33] was over 10000 nM, the GI50 [34] was over 10000 nM and the TGI [34] was over 10000 nM. The GI50 [35] was over 10000 nM, the TGI [35] was over 10000 nM and the GI50 [36] was over 10000 nM. For the same compound, the TGI [36] was over 10000 nM, the GI50 [37] was over 10000 nM and the TGI [37] was over 10000 nM. The GI50 [38] was over 10000 nM, the TGI [38] was over 10000 nM and the GI50 [39] was over 10000 nM. It also gave a TGI [39] of over 10000 nM, a GI50 [40] of over 10000 nM and a TGI [40] of over 10000 nM. The GI50 [41] was over 10000 nM, the TGI [41] was over 10000 nM and the GI50 [42] was over 10000 nM. The TGI [42] was over 10000 nM, the GI50 [43] was over 10000 nM and the TGI [43] was over 10000 nM. The GI50 [44] was over 10000 nM, the TGI [44] was over 10000 nM and the GI50 [45] was over 10000 nM. It also gave a TGI [45] of over 10000 nM, a GI50 [46] of over 10000 nM and a TGI [46] of over 10000 nM. It also gave a GI50 [47] of over 10000 nM, a TGI [47] of over 10000 nM and a GI50 [48] of over 10000 nM. It also gave a TGI [48] of over 10000 nM, a GI50 [49] of over 10000 nM and a TGI [49] of over 10000 nM. It also gave a GI50 [50] of over 10000 nM, a TGI [50] of over 10000 nM and a GI50 [51] of over 10000 nM. The TGI [51] was over 10000 nM, the GI50 [52] was over 10000 nM and the TGI [52] was over 10000 nM. The GI50 [53] was over 10000 nM, the TGI [53] was over 10000 nM and the GI50 [54] was over 10000 nM. It also gave a TGI [54] of over 10000 nM, a GI50 [55] of over 10000 nM and a TGI [55] of over 10000 nM.
